For 25 compounds, TGI and GI50 results are on record in PubChem BioAssay (NCI).

Some test systems named below: ACHN renal; CAKI-1 renal; HCT-116 colon; HOP-92 NSCLC; HS 578T breast; IGROV1 ovarian; M14 melanoma; NCI-H226 lung; NCI-H460 lung; SR leukemia.
Assay in all cases: NCI anticancer screen, dose series, 48 h

Molecules are shown by their SMILES. Where “and” joins values, the source holds several entries; their conditions need not be identical. Equal values may be shown once.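 Cultured in 96-well plates, cells were exposed to test compound for 48 hours across five concentrations. Abbreviation: GI50, concentration required for 50% inhibition of growth. TGI is the concentration that stops growth completely.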

For `O=C(Cn1c(-c2ccccc2)cc2ccccc21)N1CCOCC1`, the TGI in the assay with ACHN renal, in the assay with CAKI-1 renal, with HCT-116 colon, in the assay on HOP-92 NSCLC, with HS 578T breast and in the assay on IGROV1 ovarian was over 100 µM each time. Moreover, the TGI in the assay on M14 melanoma, in the assay with NCI-H226 lung and with NCI-H460 lung was over 100 µM in each case.

For `O=C(Nc1nc2ccc([N+](=O)[O-])cc2s1)c1cc([N+](=O)[O-])ccc1Cl`, the TGI was determined as 13.7 µM in the assay on ACHN renal; 24.3 µM in the assay on CAKI-1 renal; 5.33 µM in the assay with HCT-116 colon; 2.97 µM in the assay on HOP-92 NSCLC; 7.24 µM with NCI-H226 lung.

As to `CC(=O)OCc1cc2c(s1)C(=O)c1sccc1C2=O`, the TGI in the assay on ACHN renal stood at 0.246 µM; with CAKI-1 renal, 3.24 µM; in the assay with HCT-116 colon, 3.38 µM; with HOP-92 NSCLC it was 1.68 µM; with HS 578T breast, 0.422 µM; in the assay on IGROV1 ovarian, 2.79 µM. Besides, the values for the TGI in the assay with M14 melanoma, in the assay with NCI-H226 lung and in the assay on NCI-H460 lung were under 0.0189 µM, 1.24 µM and 0.322 µM, respectively.

On to `NS(=O)(=O)c1cc2c(cc1Cl)NC(C(=O)NNC(=O)c1ccncc1)=NS2(=O)=O`, for which the TGI in the assay with ACHN renal, in the assay on CAKI-1 renal, with HCT-116 colon, in the assay on HOP-92 NSCLC, in the assay with IGROV1 ovarian and in the assay on M14 melanoma was over 100 µM each time. Besides, the TGI in the assay on NCI-H226 lung, with NCI-H460 lung and with SR leukemia was over 100 µM throughout.

Consider `COC(=O)c1ccccc1NCc1cc(O)ccc1O`, for which the TGI in the assay with ACHN renal is 29.8 µM; in the assay on CAKI-1 renal, 44.6 µM; in the assay on HCT-116 colon, 35.2 µM; with HOP-92 NSCLC it was 35.3 µM; with HS 578T breast it was 61.5 µM; in the assay with IGROV1 ovarian, over 63.4 µM. The TGI was 17.1 µM with M14 melanoma, 65.3 µM in the assay with NCI-H226 lung and over 31.6 µM with NCI-H460 lung.

Consider `CCCSC1=N/C(=C\c2ccco2)C(=O)N1`, for which the TGI in the assay with ACHN renal, in the assay with CAKI-1 renal, with HCT-116 colon, with HOP-92 NSCLC, with HS 578T breast and with IGROV1 ovarian was over 100 µM each time. In addition, the TGI in the assay with M14 melanoma, in the assay with NCI-H226 lung and in the assay with NCI-H460 lung was over 100 µM throughout.

For `CCc1nc2cc(F)ccc2[nH]c1=O`, the TGI with ACHN renal, with CAKI-1 renal, with HCT-116 colon, in the assay on HOP-92 NSCLC, in the assay with HS 578T breast and in the assay with M14 melanoma was over 100 µM in each case. The TGI in the assay on NCI-H226 lung and in the assay on NCI-H460 lung was over 100 µM each time.

On to `CSC(=NCCCN=C(NS(=O)(=O)c1ccc(Cl)cc1)SC)NS(=O)(=O)c1ccc(Cl)cc1`, for which the TGI is over 100 µM with ACHN renal; over 100 µM in the assay on CAKI-1 renal; over 100 µM with HCT-116 colon; 67.9 µM with HOP-92 NSCLC; over 100 µM with IGROV1 ovarian; over 100 µM in the assay with M14 melanoma. Also, the TGI in the assay on NCI-H460 lung and with SR leukemia was over 100 µM in each case.

On to `O=C(c1ccccc1)n1c2ccc(Br)cc2c2nc3ccccc3nc21`, for which the TGI in the assay on ACHN renal, in the assay on CAKI-1 renal, with HCT-116 colon, in the assay with HOP-92 NSCLC, with IGROV1 ovarian and with M14 melanoma was over 100 µM each time. For the same compound, the TGI in the assay with NCI-H226 lung, with NCI-H460 lung and with SR leukemia was over 100 µM throughout.

As for `CCCCC(C)(C/C=C/[C@@H]1[C@@H](C(O)CCCCCC(=O)OC)C(=O)C[C@H]1O[Si](C)(C)C(C)(C)C)O[Si](C)(C)C` (some centres undefined), the TGI is over 100 µM in the assay with ACHN renal; 78.1 µM in the assay with CAKI-1 renal; over 100 µM in the assay with HCT-116 colon; over 100 µM with HOP-92 NSCLC; over 100 µM in the assay with IGROV1 ovarian; over 100 µM in the assay on M14 melanoma. In addition, the TGI in the assay on NCI-H226 lung, in the assay on NCI-H460 lung and in the assay with SR leukemia was over 100 µM throughout.

As to `COc1ccc(Sc2ccccc2[N+](=O)[O-])cc1`, the TGI is over 100 µM in the assay on HCT-116 colon; over 100 µM with HOP-92 NSCLC; over 100 µM in the assay on IGROV1 ovarian; over 100 µM in the assay with M14 melanoma; 45.8 µM with NCI-H226 lung; over 100 µM in the assay with NCI-H460 lung. The compound further displayed a TGI with SR leukemia of over 100 µM.

Regarding `COC1=C(C)C(=O)C2=C(C1=O)C1C3CC4=C(C(=O)C(OC)=C(C)C4=O)C(CNC(=O)C(C)=O)N3C(C#N)C(C2)N1C` (centres undefined), the GI50 in the assay on ACHN renal is 0.00366 µM; in the assay on CAKI-1 renal, 1.63 pM. For the same compound, the TGI in the assay on ACHN renal is 1.16 µM and 1.23 µM; in the assay with CAKI-1 renal, 0.126 µM; with HOP-92 NSCLC it was 0.00425 µM and 0.0162 µM; with HS 578T breast, 0.00238 µM; with IGROV1 ovarian, 0.199 µM and 0.0948 µM; in the assay on NCI-H460 lung, 0.0318 µM and 0.211 µM and 0.151 µM.

On to `CN(C)c1ccc(/C=C2\CCCCCC2=O)cc1`, for which the TGI in the assay on ACHN renal, in the assay on CAKI-1 renal, in the assay with HCT-116 colon, in the assay on IGROV1 ovarian, with M14 melanoma and in the assay with NCI-H460 lung was over 100 µM in each case. The same compound gave a TGI in the assay with SR leukemia of over 100 µM.

Take `Cc1nnc(N)s/c1=N/O`: the TGI in the assay on ACHN renal, with CAKI-1 renal, in the assay with HCT-116 colon, in the assay on HOP-92 NSCLC, in the assay on HS 578T breast and in the assay with IGROV1 ovarian was over 100 µM throughout. In addition, the TGI in the assay with M14 melanoma, with NCI-H226 lung and in the assay on NCI-H460 lung was over 100 µM each time.

For the compound `COc1ccc(OC)c2c(Nc3ccc(S(=O)(=O)O)c4cc(S(=O)(=O)O)cc(S(=O)(=O)O)c34)cc(C)nc12`, the TGI in the assay with ACHN renal, in the assay with CAKI-1 renal, in the assay with HCT-116 colon, in the assay with HS 578T breast, in the assay with IGROV1 ovarian and with M14 melanoma was over 100 µM throughout. In addition, the TGI with NCI-H226 lung and with NCI-H460 lung was over 100 µM throughout.

Regarding `O=CC12CCCN1CCC2`, the TGI with ACHN renal, in the assay with CAKI-1 renal, in the assay on HCT-116 colon, in the assay on IGROV1 ovarian, in the assay with M14 melanoma and in the assay on NCI-H226 lung was over 100 µM throughout. The TGI in the assay on NCI-H460 lung and in the assay with SR leukemia was over 100 µM in each case.

`CCCCCCCCCCCC1=C(O)C(=O)C=C(O)C1=O`: the TGI in the assay on CAKI-1 renal came out at 15.7 µM; in the assay on HCT-116 colon it was 30.1 µM; in the assay on HOP-92 NSCLC, 11.7 µM; in the assay with IGROV1 ovarian, 20.5 µM; in the assay on NCI-H226 lung, 15.4 µM; in the assay on NCI-H460 lung, 9.98 µM.

On to `CCOC(=O)N/N=C(/N)Cc1ccc(Cl)cc1`, for which the TGI with ACHN renal, in the assay on HCT-116 colon, in the assay on HOP-92 NSCLC, with IGROV1 ovarian and with M14 melanoma was over 100 µM in each case.

As for `COc1cc(O)c2c(=O)c(O)c(-c3ccc(O)c(O)c3)oc2c1`, the TGI is 24.9 µM with ACHN renal; 15.6 µM with CAKI-1 renal; 45.5 µM with HCT-116 colon; 45.1 µM in the assay on HOP-92 NSCLC; over 100 µM in the assay on IGROV1 ovarian; 42.6 µM in the assay with M14 melanoma. Moreover, the TGI was 20.6 µM in the assay on NCI-H460 lung and over 100 µM in the assay on SR leukemia.

With `NNC(=O)COc1nc(-c2cccs2)nc2ccc(I)cc12`, the TGI in the assay on ACHN renal turned out to be 74.2 µM; with CAKI-1 renal, 44.1 µM; with HCT-116 colon, 36.3 µM; in the assay on HOP-92 NSCLC, 61.8 µM; in the assay with IGROV1 ovarian it was 56.3 µM; with M14 melanoma, 58.3 µM. Also, the TGI in the assay on NCI-H226 lung was 83.9 µM; in the assay with NCI-H460 lung, 70.4 µM; with SR leukemia, 55.6 µM.

As for `CC(=O)Nc1ccc(C(=O)NN2C(=O)CSC2c2ccccc2)cc1` (centres undefined), the TGI with ACHN renal, with HCT-116 colon, with HOP-92 NSCLC, in the assay with HS 578T breast, in the assay on IGROV1 ovarian and in the assay on M14 melanoma was over 100 µM each time. Also, the TGI with NCI-H226 lung and in the assay on NCI-H460 lung was over 100 µM in each case.

Turning to `COC(=O)C1CCC(=S)N1C(C)=O` (centres undefined), the TGI in the assay on ACHN renal, in the assay with CAKI-1 renal, in the assay on HCT-116 colon, in the assay on HOP-92 NSCLC, in the assay with HS 578T breast and in the assay on IGROV1 ovarian was over 100 µM in each case. Also, the TGI with M14 melanoma and with NCI-H460 lung was over 100 µM each time.

Consider `COC(=O)C1=C(C)C(=O)C2(CCCCCC2C(=O)OC)C1` (centres undefined), for which the TGI in the assay with ACHN renal, in the assay with CAKI-1 renal, in the assay with HCT-116 colon, with HOP-92 NSCLC, in the assay with IGROV1 ovarian and with M14 melanoma was over 100 µM in each case. Also, the TGI with NCI-H226 lung, with NCI-H460 lung and in the assay on SR leukemia was over 100 µM throughout.

Consider `Cc1cccc2c1Oc1ncccc1C2NC(=O)CN(C)C` (centres undefined), for which the TGI in the assay with ACHN renal, in the assay on HOP-92 NSCLC, in the assay with IGROV1 ovarian, with M14 melanoma, in the assay with NCI-H226 lung and with NCI-H460 lung was over 10 µM throughout. In the assay with SR leukemia, this compound registered a TGI of over 10 µM.

Consider `Nc1nc(N)c2ncn(Cc3ccccc3)c2n1`, for which the TGI in the assay with ACHN renal, in the assay on CAKI-1 renal, in the assay with HCT-116 colon, in the assay with HOP-92 NSCLC, with HS 578T breast and in the assay with IGROV1 ovarian was over 100 µM each time. Moreover, the TGI with M14 melanoma and in the assay on NCI-H226 lung was over 100 µM each time.
